Test results taken from PMC9612427 (Journal of the American Chemical Society, 2022).
Blank lines part the entries; values can stand above or below the compound they belong to.

Key:
[1] = test system: MAPK signaling (phospho-MEK1/2, phospho-ERK1/2) in A375 cells; experiment: MEK1/2 and ERK1/2 phosphorylation; type: cell-based; settings: for inhibition of ERK1/2 phosphorylation after 24 h: highest concentrations (10 μM)
[2] = BBB penetrance: brain and serum drug levels after single IV injection; type: in vivo, mice; settings: for Kp at 60 min: mouse, brain and serum, iv, 25 mg/kg
P-glycoprotein (MDR1) = P-glycoprotein (MDR1) (Homo sapiens, UniProt P08183); experiment: MDR1-MDCK transwell assay; settings: for efflux ratio (ER): 10 μM compound, 90 min, substrate when ER ≥ 2.0
P-glycoprotein (MDR1), sequence (P08183 whole entry): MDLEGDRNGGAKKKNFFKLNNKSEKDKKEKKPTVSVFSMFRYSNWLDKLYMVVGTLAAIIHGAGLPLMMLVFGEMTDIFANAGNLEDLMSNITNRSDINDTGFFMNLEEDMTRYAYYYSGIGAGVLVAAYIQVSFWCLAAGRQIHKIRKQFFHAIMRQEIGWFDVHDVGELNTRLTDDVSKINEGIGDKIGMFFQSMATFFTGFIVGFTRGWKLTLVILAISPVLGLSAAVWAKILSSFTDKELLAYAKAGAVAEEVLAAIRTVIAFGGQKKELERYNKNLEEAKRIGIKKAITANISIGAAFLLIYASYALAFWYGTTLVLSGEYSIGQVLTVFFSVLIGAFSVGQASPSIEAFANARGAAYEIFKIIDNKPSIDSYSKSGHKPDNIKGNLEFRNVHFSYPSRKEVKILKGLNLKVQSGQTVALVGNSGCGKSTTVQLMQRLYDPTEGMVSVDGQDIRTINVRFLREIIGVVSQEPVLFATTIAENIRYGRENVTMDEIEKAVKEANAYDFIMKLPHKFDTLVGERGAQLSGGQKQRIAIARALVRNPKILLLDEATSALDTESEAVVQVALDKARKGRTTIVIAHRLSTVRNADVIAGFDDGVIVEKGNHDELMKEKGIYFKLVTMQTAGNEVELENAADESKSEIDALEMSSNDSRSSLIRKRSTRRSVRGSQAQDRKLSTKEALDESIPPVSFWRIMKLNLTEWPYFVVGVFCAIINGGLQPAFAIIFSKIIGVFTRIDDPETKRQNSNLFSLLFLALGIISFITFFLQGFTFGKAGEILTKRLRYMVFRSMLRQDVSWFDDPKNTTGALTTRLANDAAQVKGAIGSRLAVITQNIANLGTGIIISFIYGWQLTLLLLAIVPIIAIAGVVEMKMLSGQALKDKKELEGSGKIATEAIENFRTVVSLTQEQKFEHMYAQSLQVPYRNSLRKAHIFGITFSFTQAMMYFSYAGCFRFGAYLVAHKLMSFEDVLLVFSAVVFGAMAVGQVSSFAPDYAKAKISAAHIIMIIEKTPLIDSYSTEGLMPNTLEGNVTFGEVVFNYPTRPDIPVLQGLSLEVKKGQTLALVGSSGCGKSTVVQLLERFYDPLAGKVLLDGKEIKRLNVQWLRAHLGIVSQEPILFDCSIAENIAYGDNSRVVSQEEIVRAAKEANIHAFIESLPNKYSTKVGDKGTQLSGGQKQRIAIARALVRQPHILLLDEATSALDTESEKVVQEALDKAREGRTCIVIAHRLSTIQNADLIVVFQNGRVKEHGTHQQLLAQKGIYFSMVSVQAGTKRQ

[3] = test system: intracranially implanted A375 melanoma cells; experiment: A375 intracranial mouse model of metastatic melanoma; type: in vivo; settings: 50 mg/kg IP once a day, two cycles of 5 days, 10 doses; athymic nude mice
[4] = test system: V600E BRAF tumors in the brain; settings: cited from earlier work
P-gp [5] = experiment: P-gp in vivo assay; settings: mice
P-gp [6] = target: P-gp (Homo sapiens, UniProt P08183); experiment: calcein-AM P-gp inhibition assay in MDR1-MDCK cells; type: cell-based
P-gp (Homo sapiens, UniProt P08183), sequence (P08183 whole entry): as above

[7] = test system: V600E BRAF melanoma cell lines; experiment: 72 h cell viability assay, panel of V600E BRAF melanoma cell lines; type: cell-based; settings: read-out: IC50, panel of V600E BRAF melanoma cell lines
cell lines with WT BRAF = experiment: 72 h cell viability assay, cell lines with WT BRAF; type: cell-based; settings: read-out: IC50, cell lines with WT BRAF
[8] = test system: MAPK signaling in CHL-1, a WT BRAF melanoma cell line; experiment: MEK1/2 and ERK1/2 phosphorylation; type: cell-based; settings: CHL-1 (WT BRAF), 1 h, identical treatment
[9] = test system: AM-38 (V600E BRAF) and U118MG, T98G, U87 (WT BRAF) glioma cell lines; experiment: cell culture cytotoxicity against glioma cell lines; type: cell-based

Kp at 60 min [2]: 0.0014 to 0.0069
Compound: CCCS(=O)(=O)Nc1ccc(F)c(C(=O)c2c[nH]c3ncc(Cl)cc23)c1F [PLX4720]
inhibition of ERK1/2 phosphorylation after 24 h [1]: diminished inhibition

efflux ratio (ER) (P-glycoprotein (MDR1); MDR1-MDCK transwell): high ERs
Compound: Cn1cnc2c(F)c(Nc3ccc(Br)cc3F)c(C(=O)NOCCO)cc21 [binimetinib]

Compound: COC(=O)c1cn2c3c(c(N4CCN(C)CC4)c(F)cc3c1=O)OC[C@@H]2C [compound 7]
efflux ratio (ER) (P-glycoprotein (MDR1); MDR1-MDCK transwell): 5.66

Compound: CC(C)(C)c1nc(-c2cccc(NS(=O)(=O)c3c(F)cccc3F)c2F)c(-c2ccnc(N)n2)s1 [dabrafenib]
inhibition of ERK1/2 phosphorylation after 24 h [1]: diminished inhibition
Kp at 60 min [2]: 0.0014 to 0.0069
median survival [3]: 39 days
duration of intracranial response ([4]; combined with trametinib, melanoma brain metastases, clinical trials): 6.5 months
fold increase of brain-to-serum ratio by P-gp inhibition (elacridar) (P-gp [5]; 15 min, 2.5 mg/kg elacridar IV 30 min before 25 mg/kg compound IV): 4.3 fold

P-gp inhibition (calcein-AM fluorescence) (P-gp [6]): robust inhibition
Compound: COc1cc2c(cc1OC)CN(CCc1ccc(NC(=O)c3cccc4c(=O)c5cccc(OC)c5[nH]c34)cc1)CC2 [elacridar]

Kp at 60 min [2]: 0.0014 to 0.0069
Compound: COC(=O)N[C@@H](C)CNc1nccc(-c2cn(C(C)C)nc2-c2cc(Cl)cc(NS(C)(=O)=O)c2F)n1 [encorafenib]

Compound: CCCS(=O)(=O)Nc1cc(Cl)cc(-c2nc(C(C)(C)C)sc2-c2ccnc(N)n2)c1F [everafenib]
IC50 [7]: 0.002 to 0.01 µM
IC50 (cell lines with WT BRAF): > 1 µM
inhibition of MAPK signaling (MEK1/2 and ERK1/2 phosphorylation) ([1]; 1 h, 1 μM everafenib, 10 μM everafenib-CO2H): strongly inhibited
inhibition of ERK1/2 phosphorylation after 24 h [1]: sustained
inhibition of MAPK signaling [8]: not observed
brain-to-serum ratio ([2]; mice, 60 min after single 25 mg/kg IV injection): 0.286 ng/g:ng/mL
median survival [3]: 50.5 days
cytotoxicity against AM-38 ([9]; AM-38, glioblastoma cell line with V600E BRAF): comparable cytotoxicity to dabrafenib
activity against glioma cell-lines with WT BRAF ([9]; U118MG, T98G, U87): no activity
permeability (Papp) (P-glycoprotein (MDR1); MDR1-MDCK transwell, A–B and B–A directions): 4.9 to 6.4 ×10⁻⁶ cm/s
potentiation of brain penetrance with elacridar (P-gp [5]; time not given): did display potentiation with elacridar

efflux ratio (ER) (P-glycoprotein (MDR1); MDR1-MDCK transwell): high ERs
Compound: COc1cc2nc(N3CCN(C(=O)c4ccco4)CC3)nc(N)c2cc1OC [prazosin]

P-gp inhibition (calcein-AM fluorescence) (P-gp [6]): robust inhibition
efflux ratio (ER) (P-glycoprotein (MDR1); MDR1-MDCK transwell): high ERs
Compound: C=C[C@H]1C[N@@]2CC[C@H]1C[C@@H]2[C@@H](O)c1ccnc2ccc(OC)cc12 [quinidine]

Papp at 90 min, 10 μM (P-glycoprotein (MDR1); human, MDCK-MDR1): 1.2 ×10⁻⁶ cm/s
Compound: CC(C)(C)c1ccc(C(O)CCCN2CCC(C(O)(c3ccccc3)c3ccccc3)CC2)cc1 (stereo not shown) [terfenadine]

efflux ratio (ER) (P-glycoprotein (MDR1); MDR1-MDCK transwell): high ERs
Compound: CCCS(=O)(=O)Nc1ccc(F)c(C(=O)c2c[nH]c3ncc(-c4ccc(Cl)cc4)cc23)c1F [vemurafenib]
patients responding ([4]; pleomorphic xanthoastrocytoma patients, histology agnostic trial): four out of seven
